Values quoted from earlier work, collected in patent US20120058151A1, “NANOPARTICULATE COMPOSITIONS OF POORLY SOLUBLE COMPOUNDS” (CAPSULUTION PHARMA AG, priority 2008, published 2012).

solubility in water: practically insoluble in water
Structure (SMILES): CCOc1nc2cccc(C(=O)OC(C)OC(=O)OC3CCCCC3)c2n1Cc1ccc(-c2ccccc2-c2nnn[nH]2)cc1 (stereo not shown) [candesartan cilexetil]
